The text below walks through data of ChEMBL document CHEMBL1629592, “Real-time monitoring of human enterovirus (HEV)-infected cells and anti-HEV 3C protease potency by fluorescence resonance energy transfer” (Antimicrob Agents Chemother, 2009).

Assay type in all cases: functional, organism-based
Test [1] relates to Enterovirus. Briefly: Antiviral activity against Human enterovirus CVA16 infected in Vero cells after 4 to 7 days by plaque reduction assay. In general terms: In a plaque reduction assay, fewer plaques than in the control indicate reduced infectivity or spread.
The test system of test [2] is Enterovirus. Briefly: Antiviral activity against Human enterovirus CVB1 infected in Vero cells after 4 to 7 days by plaque reduction assay.
The subject of test [3] is Enterovirus. Briefly: Antiviral activity against Human enterovirus CVB2 infected in Vero cells after 4 to 7 days by plaque reduction assay.
The test system of test [4] is Enterovirus. Briefly: Antiviral activity against Human enterovirus CVB4 infected in Vero cells after 4 to 7 days by plaque reduction assay.
Test [5] relates to Enterovirus. In words: Antiviral activity against Human enterovirus Echo9 infected in Vero cells after 4 to 7 days by plaque reduction assay.
Test [6] relates to Enterovirus. In words: Antiviral activity against Human enterovirus EV71 infected in human HeLa cells after 2 to 4 days by formazan dye reduction assay.
Test [7] has as its system Enterovirus. Briefly: Antiviral activity against Human enterovirus CVA16 infected in human HeLa cells after 2 to 4 days by formazan dye reduction assay.
The test system of test [8] is Enterovirus. Briefly: Antiviral activity against Human enterovirus CVB1 infected in human HeLa cells after 2 to 4 days by formazan dye reduction assay.
Test [9] has as its system Enterovirus. In words: Antiviral activity against Human enterovirus CVB2 infected in human HeLa cells after 2 to 4 days by formazan dye reduction assay.
For test [10], the system named is Enterovirus. In words: Antiviral activity against Human enterovirus CVB4 infected in human HeLa cells after 2 to 4 days by formazan dye reduction assay.
Test [11] relates to Enterovirus. Briefly: Antiviral activity against Human enterovirus Echo9 infected in human HeLa cells after 2 to 4 days by formazan dye reduction assay.
Test [12] has as its system Enterovirus. Briefly: Antiviral activity against Human enterovirus EV71 infected in Vero cells after 4 to 7 days by plaque reduction assay.
For test [13], the system named is Enterovirus. In words: Antiviral activity against Human enterovirus EV71 infected in human HeLa-G3CwtR cells after 36 to 48 hrs by FRET assay.
In test [14] the test system is Enterovirus. In words: Antiviral activity against Human enterovirus CVA16 infected in human HeLa-G3CwtR cells after 36 to 48 hrs by FRET assay.
Test [15] deals with Enterovirus. In words: Antiviral activity against Human enterovirus CVB1 infected in human HeLa-G3CwtR cells after 36 to 48 hrs by FRET assay.
The test system of test [16] is Enterovirus. In words: Antiviral activity against Human enterovirus CVB2 infected in human HeLa-G3CwtR cells after 36 to 48 hrs by FRET assay.
Test [17] relates to Enterovirus. In words: Antiviral activity against Human enterovirus CVB4 infected in human HeLa-G3CwtR cells after 36 to 48 hrs by FRET assay.
Test [18] deals with Enterovirus. In words: Antiviral activity against Human enterovirus Echo9 infected in human HeLa-G3CwtR cells after 36 to 48 hrs by FRET assay.

For `CCOC(=O)/C=C/[C@H](C[C@@H]1CCNC1=O)NC(=O)[C@@H](CC(=O)[C@@H](NC(=O)c1cc(C)on1)C(C)C)Cc1ccc(F)cc1` [RUPINTRIVIR], the half-maximal effective concentration (EC50) (usually the concentration at which the effect is half-maximal) in the test with Enterovirus [1] is 419 nM; in the test with Enterovirus [2] it was 1720 nM; in the test with Enterovirus [3], 982 nM; in the test with Enterovirus [4], 843 nM; in the test with Enterovirus [5] it was 481 nM; in the test on Enterovirus [6], 561 nM. In addition, the EC50 is 270 nM in the test with Enterovirus [7]; 1250 nM with Enterovirus [8]; 783 nM in the test with Enterovirus [9]; 372 nM with Enterovirus [10]; 360 nM with Enterovirus [11]; 791 nM in the test with Enterovirus [12]. For the same compound, the EC50 turned out to be 781 nM with Enterovirus [13]; 331 nM with Enterovirus [14]; 1640 nM in the test on Enterovirus [15]; 857 nM in the test with Enterovirus [16]; 877 nM in the test on Enterovirus [17]; 434 nM with Enterovirus [18].
